Like-named read-outs stand apart in the source and are kept apart here.
Legend:
Staphylococcus aureus [1] = test system: Staphylococcus aureus
Text: (§1) Biocidal effectiveness of the rebonded carpet pad 12 and/or film 18 according the present invention may be determined by measuring inhibition of growth of bacterial and/or fungus using AATCC (American Association of Textile Chemists and Colorists) 174, ASTM E2180-1, and ASTM D 3273 test protocols compared to non-treated control standards. The AATCC 174 protocol was developed for determining the antimicrobial activity of new carpet materials.
(§2) A number of specimens of carpet underlay 10 were made by methods described above, with various concentrations of zinc pyrithione in the binder 16 and film 18 for testing to determine levels that provide an effective antimicrobial effect. The specimens included a film 18 on one side as illustrated in FIG. 1. This allowed testing of the foam side of the specimens to indicate antimicrobial effect of the pad 12 without film 18 and testing of the film side to indicate antimicrobial effect of the pad 12 with film 18. The AATCC 174 test method provides for testing both unwashed and washed samples. Washed samples were treated according to the AATCC 138 protocol.
(§3) The AATCC 174, Part II test provides a quantitative procedure for the evaluation of the degree of antibacterial activity. Test specimens are inoculated with the test microorganisms. After incubation, the bacteria are eluted from specimens by shaking in 100 milliliters of liquid. The number of bacteria present in the liquid is determined and the percent reduction produced by the specimen is calculated.

Klebsiella pneumoniae [2] = test system: Klebsiella pneumoniae
Text: as §1, §2, §3

Staphylococcus aureus [3] = details: unwashed foam side specimen with 751 ppm of zinc pyrithione
Text: as §1, §2
(§4) The AATCC 174 test method includes three parts. Part I is a qualitative test for antibacterial activity. Test specimens are placed into contact with a nutrient agar which has been streaked with a bacterial culture. The specimens are then incubated. After incubation, a clear area of interrupted growth underneath and along the sides of the test specimen indicates antibacterial activity of the specimen. Standard strains of bacteria are used, with Staphylococcus aureus and Klebsiella pneumoniae being the representative organisms.

Klebsiella pneumoniae [4] = test system: Klebsiella pneumoniae; remark: listed apart in the source
Text: as §1, §2, §4

Aspergillus niger [5] = details: 28 degrees C., seven days
Text: as §1, §2

Aspergillus niger [6] = details: film side specimens, total minimum combined concentration (pad + film) of about 1600 ppm
Text: as §1

Aspergillus niger [7] = test system: Aspergillus niger
Method: as §1
Inhibitory mold activity was also tested by the ASTM E2180-01 test method. […] The total combined concentration is the sum of the concentration in the pad 12 of a specimen and the concentration in the film 18 of the specimen.

[8] = all unwashed and washed film and foam side specimens, 500 ppm or more in the film and 1096 ppm in the pad
[9] = washed foam side specimen containing 751 ppm of zinc pyrithione
[10] = washed foam side specimen containing 1096 ppm of zinc pyrithione

Structure (SMILES): [O-]n1ccccc1=S.[O-]n1ccccc1=S.[Zn+2] [zinc pyrithione, Bis(1-hydroxy-2(1H)-pyridinethionato-O,S)-(T-4)Zinc]
- average reduction in Staphylococcus aureus (Staphylococcus aureus [1]; [8]): 92%
- reduction in Staphylococcus aureus (minimum over specimens) (Staphylococcus aureus [1]; [8]): at least 66%
- reduction in the numbers of Staphylococcus aureus (Staphylococcus aureus [1]; [9]): 90%
- reduction in the numbers of Staphylococcus aureus (Staphylococcus aureus [1]; [10]): 90%
- reduction in the numbers of Klebsiella pneumoniae (Klebsiella pneumoniae [2]; [9]): 90%
- reduction in the numbers of Klebsiella pneumoniae (Klebsiella pneumoniae [2]; [10]): 90%
- zone of inhibition for Staphylococcus aureus (Staphylococcus aureus [3]): two
- growth of Klebsiella pneumoniae underneath and along the sides of the specimen (Klebsiella pneumoniae [4]; all unwashed and washed foam side specimens with 1096 ppm or more of zinc pyrithione): inhibited the growth
- zone of inhibition for Klebsiella pneumoniae (Klebsiella pneumoniae [4]; unwashed foam side specimen with 751 ppm of zinc pyrithione): one
- fungus growth (Aspergillus niger) (Aspergillus niger [5]; washed and unwashed film side samples, 1500 ppm or greater of zinc pyrithione in the film): No growth was observed
- fungus growth (Aspergillus niger) (Aspergillus niger [5]; washed and unwashed foam side samples, 1096 ppm of zinc pyrithione in the pad): no observable fungus growth
- Aspergillus niger mold colonization (Aspergillus niger [6]): No Aspergillus niger mold colonization was observed
- inhibitory activity for Aspergillus niger (Aspergillus niger [7]; film side specimens, total minimum combined concentration (pad + film) of 1600 ppm): Good inhibitory activity
- inhibitory activity for Aspergillus niger (Aspergillus niger [7]; total combined concentration of 1251 ppm, i.e. 751 ppm in the pad and 500 ppm in the film): Good results were achieved for some, but not all, specimens

Source: patent US7875343B2, “Anti-microbial carpet underlay and method of making” (L & P Property Management Company, priority 2003, dated 2011)
